Data from patent publication US20200016088A1, “NANOFORMULATIONS OF NEUROPEPTIDES AND METHOD OF MAKING SAME” (THE CORPORATION OF MERCER UNIVERSITY, priority 2018, published 2020).
Each block holds one compound with its values, some of them ahead of it.

Assays:
[1] = test system: macrophage (RAW 246.7) cell line; assay: Cytotoxicity by MTT assay; type: cell-based; settings: relative to negative control
Source text: (See Examples 10 through 16 hereinbelow). As confirmed in past research, the nanoparticle formulations have shown to be both safe and non-toxic in non-human primates. In primates, all parameters related to liver toxicity (such as SGOT, SGPT) and kidney toxicity (such as serum creatinine, […]) were normal after repeated nanoparticulate administrations when compared to the control group. […] For confirmation of a potential innate inflammatory response, nitric oxide assays are an important tool. For the assay, dendritic cells are plated in a well plate and exposed to the formulation. After 16 hours, using reagents, a stronger color change indicates a higher production of nitric oxide by these antigen-presenting cells in response to the formulation's antigenicity. […] This indicates minimal if not negligible immunogenicity of the formulation. […] Likewise, cytotoxicity of blank nanoparticles was assessed by MTT (3-(4,5-Dimethylthiazol-2-yl)-2,5-diphenyltetrazolium bromide) assay in a macrophage (RAW 246.7) cell line.
The cytotoxicity of blank and peptide loaded nanoparticles was assessed by the MTT (3-(4,5-Dimethylthiazol-2-yl)-2,5-diphenyltetrazolium bromide) assay. […] Absorbance in each well was measured at 570 nm in a microtiter plate reader. The formation of a colored product quantified by measuring absorbance can be correlated to the percentage of living cells.

[2] = test system: BEND3 cells; assay: BBB transport across BEND3 cell barrier in Ussing chamber; type: in vitro ADME, mouse; settings: 1, 2, 3 and 4 hours
Source text: To generate a cellular model of the BBB, BEND3 cells were obtained from American Type Culture Collection (ATCC: 2299). BEND3 cells are endothelial cells that form tight barriers through the formation of transcellular tight junctions (Montesano et al. 1990; Sikorski et al. 1993; Williams et al. 1988), and these barriers mimic the barrier properties of the BBB (He et al. 2010; Watanabe et al. 2013). Their endothelial nature has been confirmed by the expression of von Willebrand factor and the uptake of fluorescently labeled low density lipoprotein. BEND3 cells were cultured in Dulbecco's Modified Eagle Medium (DMEM) supplemented with 15% FBS and 1% (100 U/ml Penicillin and 100 μg/ml Streptomycin). […]
To study the transport of nanoparticle formulations across the BEND3 BBB model barrier, a complete Ussing chamber system with a multichannel voltage-current clamp and the EasyMount Ussing chambers (Model VCC MC8; P2300; Physiologic Instruments Inc.; San Diego, Calif.) was used. […] To subtract the background resistance, a blank cell-culture insert was placed onto the slider and used to compensate for any fluid or blank membrane resistance by dialing off any reading to zero. […] Before the start of the experiment, all cell barrier preparations were evaluated for resistance properties and current flow using the acquire and analyze software. […]

[3] = within one hour of intranasal delivery (Leng and Ludwig 2016); cited from earlier work
[4] = in vivo; cited from earlier work
[5] = OT in CSF and plasma by ELISA after intranasal administration; type: in vivo, Swiss-Webster mice; settings: 2 hours after intranasal administration, 50 ug OT

Compound: benzalkonium chloride
cell viability ([1]; after 24 hours): 21.44% | cell viability ([1]; after 48 hours): 20.089%

transport across the barrier, presence versus absence of the cell barrier [2]: significant reduction
Compound: Cc1cc(-c2ccc(/N=N/c3c(S(=O)(=O)O)cc4cc(S(=O)(=O)O)cc(N)c4c3O)c(C)c2)ccc1/N=N/c1c(S(=O)(=O)O)cc2cc(S(=O)(=O)O)cc(N)c2c1O [trypan blue]

proportion of OT in CSF versus the total in CSF plus plasma [5]: 4.2%
Compound: CC[C@H](C)[C@@H]1NC(=O)[C@H](Cc2ccc(O)cc2)NC(=O)[C@@H](N)CSSC[C@@H](C(=O)N2CCC[C@H]2C(=O)N[C@@H](CC(C)C)C(=O)NCC(N)=O)NC(=O)[C@H](CC(N)=O)NC(=O)[C@H](CCC(N)=O)NC1=O [OT, oxytocin]
calculated maximum transfer of a dose to the brain [3]: 0.005% | half-life in the blood [4]: on the order of minutes
